Results as given in patent US20070032520A1, “Indol-5-yl sulfonamide derivatives, their preparation and their use 5-ht-6 as modulators” (Laboratorios Del Dr. Esteve S.A, priority 2003, published 2007).

CN(C)CCn1ccc2cc(NS(=O)(=O)c3cccc4ccccc34)ccc21 [Example 3, N-[1-(2-dimethylaminoethyl)-1H-indole-5-yl]-naphthalene-1-sulfonamide]
melting point: 179 to 181 °C

CN(C)CCn1ccc2cc(NS(=O)(=O)c3cccc4c(Cl)cccc34)ccc21 [Example 4, N-[1-(2-dimethylaminoethyl)-1H-indole-5-yl]-5-chloronaphthalene-1-sulfonamide]
melting point: 172 to 174 °C

CN(C)CCn1ccc2cc(NS(=O)(=O)c3c(Cl)nc4sccn34)ccc21 [Example 11, N-[1-(2-dimethylaminoethyl)-1H-indole-5-yl]-6-chloroimidazo[2,1-b]thiazole-5-sulfonamide]
melting point: 50 to 52 °C

CN(C)CCn1ccc2cc(NS(=O)(=O)c3cc(Cl)cc(Cl)c3)ccc21 [Example 12, N-[1-(2-dimethylaminoethyl)-1H-indole-5-yl]-3,5-dichlorobenzenesulfonamide]
melting point: 124 to 126 °C

CN(C)CCn1ccc2cc(NS(=O)(=O)c3cccc(Br)c3)ccc21 [Example 13, N-[1-(2-dimethylaminoethyl)-1H-indole-5-yl]-3-bromobenzenesulfonamide]
melting point: 114 to 116 °C

CN(C)CCn1ccc2cc(NS(=O)(=O)c3cc(Cl)c(Cl)s3)ccc21 [Example 20, N-[1-(2-dimethylaminoethyl)-1H-indole-5-yl]-4,5-dichlorothiophene-2-sulfonamide]
melting point: 120 to 123 °C
